Consider 64 compounds from patent US8962641B2, “Pyrimidine-substituted pyrrolidine derivatives, pharmaceutical compositions and uses thereof” (Boehringer Ingelheim International GmbH, priority 2013, dated 2015).

In the assay the target is human ACC2 (Homo sapiens (Human), UniProt O00763). Kind of assay: ACC2 assay (spectrophotometric 384 well assay, NADH-linked kinetic method). The assay is classed as biochemical. Particulars: hACC2 construct lacking 128 N-terminal amino acids; coupled lactate dehydrogenase/pyruvate kinase reaction, 340 nm, 25° C. The essentials:
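Baculovirus/insect-cell human ACC2, anion-exchange purified; ADP formation coupled to pyruvate kinase/lactate dehydrogenase, NADH loss followed at 340 nm, 25° C, 15 min. Final 200 μM NADH and acetyl-CoA, 500 uM ATP; vehicle and no-acetyl-CoA wells set 100% and 0%.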

human ACC2, sequence (O00763 129-2458): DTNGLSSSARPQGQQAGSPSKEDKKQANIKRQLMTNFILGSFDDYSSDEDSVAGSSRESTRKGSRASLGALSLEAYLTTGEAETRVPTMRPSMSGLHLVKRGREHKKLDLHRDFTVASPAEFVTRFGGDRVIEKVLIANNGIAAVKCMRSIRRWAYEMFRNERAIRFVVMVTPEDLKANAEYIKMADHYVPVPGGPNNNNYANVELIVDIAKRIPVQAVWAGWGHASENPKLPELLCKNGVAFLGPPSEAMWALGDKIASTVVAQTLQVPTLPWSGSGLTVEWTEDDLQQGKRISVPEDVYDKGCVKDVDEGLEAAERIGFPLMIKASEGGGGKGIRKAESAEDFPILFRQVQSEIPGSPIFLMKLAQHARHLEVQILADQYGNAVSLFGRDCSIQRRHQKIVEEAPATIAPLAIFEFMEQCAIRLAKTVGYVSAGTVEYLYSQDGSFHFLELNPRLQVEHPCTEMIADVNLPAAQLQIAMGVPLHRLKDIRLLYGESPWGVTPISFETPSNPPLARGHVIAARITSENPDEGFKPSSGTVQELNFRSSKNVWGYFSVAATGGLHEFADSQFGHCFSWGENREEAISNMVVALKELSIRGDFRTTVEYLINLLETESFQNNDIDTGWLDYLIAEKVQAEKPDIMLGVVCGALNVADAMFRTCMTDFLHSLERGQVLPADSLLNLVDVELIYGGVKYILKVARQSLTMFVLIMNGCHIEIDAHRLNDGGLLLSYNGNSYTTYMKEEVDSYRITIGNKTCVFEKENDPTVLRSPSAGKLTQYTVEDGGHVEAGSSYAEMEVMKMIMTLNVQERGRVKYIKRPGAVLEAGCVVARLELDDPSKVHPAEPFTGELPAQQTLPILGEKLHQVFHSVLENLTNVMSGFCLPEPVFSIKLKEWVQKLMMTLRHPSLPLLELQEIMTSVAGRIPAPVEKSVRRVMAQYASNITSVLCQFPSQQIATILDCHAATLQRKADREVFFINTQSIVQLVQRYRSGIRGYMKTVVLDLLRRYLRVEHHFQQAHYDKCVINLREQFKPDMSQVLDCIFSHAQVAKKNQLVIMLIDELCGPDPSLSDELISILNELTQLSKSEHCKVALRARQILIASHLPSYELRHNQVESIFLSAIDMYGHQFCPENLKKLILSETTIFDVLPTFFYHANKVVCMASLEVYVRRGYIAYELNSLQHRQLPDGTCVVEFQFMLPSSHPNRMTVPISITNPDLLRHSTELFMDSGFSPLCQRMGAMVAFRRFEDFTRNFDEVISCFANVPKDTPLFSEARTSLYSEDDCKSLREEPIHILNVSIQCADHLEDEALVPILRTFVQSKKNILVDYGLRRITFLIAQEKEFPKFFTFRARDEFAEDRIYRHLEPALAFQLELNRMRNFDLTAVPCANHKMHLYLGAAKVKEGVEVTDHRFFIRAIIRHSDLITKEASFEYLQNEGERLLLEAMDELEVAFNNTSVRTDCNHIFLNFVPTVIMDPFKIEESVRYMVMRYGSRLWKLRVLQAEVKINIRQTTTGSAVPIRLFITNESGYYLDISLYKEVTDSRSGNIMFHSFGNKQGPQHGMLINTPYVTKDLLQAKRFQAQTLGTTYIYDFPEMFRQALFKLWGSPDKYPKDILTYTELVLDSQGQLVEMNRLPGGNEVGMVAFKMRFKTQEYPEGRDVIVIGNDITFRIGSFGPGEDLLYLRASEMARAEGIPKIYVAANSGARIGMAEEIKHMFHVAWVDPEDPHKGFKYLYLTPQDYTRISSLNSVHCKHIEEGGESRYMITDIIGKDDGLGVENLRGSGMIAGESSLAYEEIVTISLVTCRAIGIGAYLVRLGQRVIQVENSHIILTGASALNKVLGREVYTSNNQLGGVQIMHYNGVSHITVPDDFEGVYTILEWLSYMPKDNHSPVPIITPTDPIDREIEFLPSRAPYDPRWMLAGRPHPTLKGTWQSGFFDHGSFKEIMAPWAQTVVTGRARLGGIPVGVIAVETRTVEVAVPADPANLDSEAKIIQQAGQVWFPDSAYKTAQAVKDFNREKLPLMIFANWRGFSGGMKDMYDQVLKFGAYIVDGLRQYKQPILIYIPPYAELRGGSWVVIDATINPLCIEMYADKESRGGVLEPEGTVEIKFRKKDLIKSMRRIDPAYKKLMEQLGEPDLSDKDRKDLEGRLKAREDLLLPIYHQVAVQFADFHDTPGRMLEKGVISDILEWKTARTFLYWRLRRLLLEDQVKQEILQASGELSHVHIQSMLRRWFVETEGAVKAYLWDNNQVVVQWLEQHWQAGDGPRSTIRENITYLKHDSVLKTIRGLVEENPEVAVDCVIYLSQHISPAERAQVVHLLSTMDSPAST

As a reminder, the IC50 is the midpoint of a concentration-inhibition curve. A high value points to weaker potency. `CCN(CC)c1nccc(N2CC[C@@H](Oc3ccc([C@H](C)NC(C)=O)cc3)C2)n1` [Example 8.24] yielded an IC50 of 174 nM.

In turn, `CC(=O)N[C@@H](C)c1ccc(O[C@@H]2CCN(c3ccnc(N(C)C(C)C)n3)C2)cc1` [Example 8.25] registered an IC50 of 294 nM.

As to `CCN(CC)c1ncc(F)c(N2CC[C@@H](Oc3ccc([C@H](C)NC(C)=O)cc3)C2)n1` [Example 8.26], the IC50 worked out at 69 nM.

Take `CC(=O)N[C@@H](C)c1ccc(O[C@@H]2CCN(c3nc(N(C)CC(F)F)ncc3F)C2)cc1` [Example 8.27]: the IC50 was determined as 65 nM.

With `CC(=O)N[C@@H](C)c1ccc(O[C@@H]2CCN(c3nc(N(C)CC(C)(C)O)ncc3F)C2)cc1` [Example 8.28], the concentration for half-maximal inhibition (IC50) was found to be 809 nM.

Take `CC(=O)N[C@@H](C)c1ccc(O[C@@H]2CCN(c3nc(N(C)CC4CCOC4)ncc3F)C2)cc1` (stereo partly shown) [Example 8.29]: the IC50 is 150 nM.

Compound `CC(=O)N[C@@H](C)c1ccc(O[C@@H]2CCN(c3nc(N(C)CC(F)(F)F)ncc3F)C2)cc1` [Example 8.30] returned an IC50 of 184 nM.

`CCN(C)c1ncc(F)c(N2CC[C@@H](Oc3ccc([C@H](C)NC(C)=O)cc3)C2)n1` [Example 8.31]: the IC50 amounted to 95 nM.

As to `CC(=O)N[C@@H](C)c1ccc(O[C@@H]2CCN(c3nc(N(C)CCC(C)(C)O)ncc3F)C2)cc1` [Example 8.32], the IC50 amounted to 1070 nM.

As for `CC(=O)N[C@@H](C)c1ccc(O[C@@H]2CCN(c3nc(N(C)C4CCCC4)ncc3C#N)C2)cc1` [Example 8.33], the midpoint of inhibition, the IC50, lay at 1060 nM.

On to `CCCN(C)c1ncc(C#N)c(N2CC[C@@H](Oc3ccc([C@H](C)NC(C)=O)cc3)C2)n1` [Example 8.34], for which the IC50 stood at 1080 nM.

Consider `CCN(CC)c1ncc(C#N)c(N2CC[C@@H](Oc3ccc([C@H](C)NC(C)=O)cc3)C2)n1` [Example 8.35], for which the 50% inhibitory concentration (IC50) was found to be 824 nM.

Compound `CC(=O)N[C@@H](C)c1ccc(O[C@@H]2CCN(c3nc(NC4(C)CCCC4)ncc3F)C2)cc1` [Example 8.36] yielded a half-inhibitory concentration (IC50) of 539 nM.

`CC(=O)N[C@@H](C)c1ccc(O[C@@H]2CCN(c3ccnc(N(C)CCC#N)n3)C2)cc1` [Example 8.37] had a half-inhibitory concentration (IC50) of 349 nM.

Turning to `COc1ccc(N(C)c2nccc(N3CC[C@@H](Oc4ccc([C@H](C)NC(C)=O)cc4)C3)n2)cc1` [Example 8.38], the IC50 was found to be 1220 nM.

`COc1cccc(N(C)c2nccc(N3CC[C@@H](Oc4ccc([C@H](C)NC(C)=O)cc4)C3)n2)c1` [Example 8.39]: half-maximal inhibition (IC50) required 452 nM.

As to `CC(=O)N[C@@H](C)c1ccc(O[C@@H]2CCN(c3ccnc(N4CCC4)n3)C2)cc1` [Example 8.40], 628 nM corresponded to half-maximal inhibition (IC50).

In turn, `CC(=O)N[C@@H](C)c1ccc(O[C@@H]2CCN(c3ccnc(N(C)CC4CCOC4)n3)C2)cc1` (stereo partly shown) [Example 8.41] came in with a concentration for half-maximal inhibition (IC50) of 286 nM.

The compound `COC(CN(C)c1nccc(N2CC[C@@H](Oc3ccc([C@H](C)NC(C)=O)cc3)C2)n1)OC` [Example 8.42] displayed an IC50 of 632 nM.

Turning to `CC(=O)N[C@@H](C)c1ccc(O[C@@H]2CCN(c3ccnc(N4CCC(F)(F)C4)n3)C2)cc1` [Example 8.43], the IC50 came to 79 nM.

On to `CC(=O)N[C@@H](C)c1ccc(O[C@@H]2CCN(c3ccnc(N(C)CC(F)F)n3)C2)cc1` [Example 8.44], for which the half-inhibitory concentration (IC50) was 55 nM.

`CC(=O)N[C@@H](C)c1ccc(O[C@@H]2CCN(c3ccnc(N4CC(F)(F)C4)n3)C2)cc1` [Example 8.45] came in with an IC50 of 192 nM.

`CC(=O)N[C@@H](C)c1ccc(O[C@@H]2CCN(c3ccnc(N(C)CC(F)(F)F)n3)C2)cc1` [Example 8.46]: the half-inhibitory concentration (IC50) was determined as 89 nM.

As to `CCCN(C)c1ncc(Cl)c(N2CC[C@@H](Oc3ccc([C@H](C)NC(C)=O)cc3)C2)n1` [Example 8.47], inhibition was half-maximal at 65 nM (IC50).

`CCCN(C)c1ncc(C)c(N2CC[C@@H](Oc3ccc([C@H](C)NC(C)=O)cc3)C2)n1` [Example 8.48]: the half-maximal inhibitory concentration (IC50) was 312 nM.

Take `COCCN(C)c1nccc(N2CC[C@@H](Oc3ccc([C@H](C)NC(C)=O)cc3)C2)n1` [Example 8.49]: the IC50 came out at 219 nM.

Compound `CC(=O)N[C@@H](C)c1ccc(O[C@@H]2CCN(c3nc(N4CCCC4)ncc3Cl)C2)cc1` [Example 8.50] came in with a 50% inhibitory concentration (IC50) of 157 nM.

Compound `CC(=O)N[C@@H](C)c1ccc(O[C@@H]2CCN(c3nc(N(C)C)ncc3Cl)C2)cc1` [Example 8.51] had an IC50 of 124 nM.

For `CC(=O)N[C@@H](C)c1ccc(O[C@@H]2CCN(c3nc(N(C)CC4CCOC4)ncc3C)C2)cc1` (stereo partly shown) [Example 8.52], 905 nM corresponded to half-maximal inhibition (IC50).

For the compound `CCN(C)c1ncc(C)c(N2CC[C@@H](Oc3ccc([C@H](C)NC(C)=O)cc3)C2)n1` [Example 8.53], the 50% inhibitory concentration (IC50) turned out to be 452 nM.

`CC(=O)N[C@@H](C)c1ccc(O[C@@H]2CCN(c3nc(N(C)CC4CCOC4)ncc3Cl)C2)cc1` (stereo partly shown) [Example 8.54] showed a half-inhibitory concentration (IC50) of 125 nM.

`CCCNc1ncc(Cl)c(N2CC[C@@H](Oc3ccc([C@H](C)NC(C)=O)cc3)C2)n1` [Example 8.55] registered a concentration for half-maximal inhibition (IC50) of 987 nM.

Compound `CCN(C)c1ncc(Cl)c(N2CC[C@@H](Oc3ccc([C@H](C)NC(C)=O)cc3)C2)n1` [Example 8.56] yielded an IC50 of 60 nM.

The compound `CCN(C)c1ncc(Br)c(N2CC[C@@H](Oc3ccc([C@H](C)NC(C)=O)cc3)C2)n1` [Example 8.57] came in with a 50% inhibitory concentration (IC50) of 1000 nM.

With `CC(=O)N[C@@H](C)c1ccc(O[C@@H]2CCN(c3nc(N(C)C)ncc3Br)C2)cc1` [Example 8.58], it took 484 nM to reach half-maximal inhibition (IC50).

With `CC(=O)N[C@@H](C)c1ccc(O[C@@H]2CCN(c3nc(N4CCCC4)ncc3Br)C2)cc1` [Example 8.59], the midpoint of inhibition, the IC50, lay at 425 nM.

The compound `CCN(CC)c1ncc(Cl)c(N2CC[C@@H](Oc3ccc([C@H](C)NC(C)=O)cc3)C2)n1` [Example 8.60] registered a half-inhibitory concentration (IC50) of 59 nM.

On to `CC(=O)N[C@@H](C)c1ccc(O[C@@H]2CCN(c3nc(N(C)CC4CCOC4)ncc3Br)C2)cc1` (stereo partly shown) [Example 8.61], for which inhibition was half-maximal at 245 nM (IC50).

On to `CCCN(C)c1ncc(Br)c(N2CC[C@@H](Oc3ccc([C@H](C)NC(C)=O)cc3)C2)n1` [Example 8.62], for which the IC50 came out at 184 nM.

`CC(=O)N[C@@H](C)c1ccc(O[C@@H]2CCN(c3nc(N(C)C(C)C)ncc3F)C2)cc1` [Example 8.63] showed an IC50 of 71 nM.

`CC(=O)N[C@@H](C)c1ccc(O[C@@H]2CCN(c3nc(N(C)CCC#N)ncc3F)C2)cc1` [Example 8.64] showed a half-inhibitory concentration (IC50) of 745 nM.

`[2H]C([2H])([2H])N(c1ncc(F)c(N2CC[C@@H](Oc3ccc([C@H](C)NC(C)=O)cc3)C2)n1)C([2H])([2H])[2H]` [Example 8.65] gave an IC50 of 80 nM.

Compound `COCCN(C)c1ncc(F)c(N2CC[C@@H](Oc3ccc([C@H](C)NC(C)=O)cc3)C2)n1` [Example 8.66] showed an IC50 of 65 nM.

`CC(=O)N[C@@H](C)c1ccc(O[C@@H]2CCN(c3nc(N4CC(F)(F)C4)ncc3F)C2)cc1` [Example 8.67] displayed an IC50 of 130 nM.

In turn, `CC(=O)N[C@@H](C)c1ccc(O[C@@H]2CCN(c3nc(N(C)C4CC4)ncc3F)C2)cc1` [Example 8.68] gave a concentration for half-maximal inhibition (IC50) of 50 nM.

Compound `CC(=O)N[C@@H](C)c1ccc(O[C@@H]2CCN(c3nc(N4CCC(F)(F)C4)ncc3F)C2)cc1` [Example 8.69] gave an IC50 of 102 nM.

Compound `CC(=O)N[C@@H](C)c1ccc(O[C@@H]2CCN(c3nc(N4CCC(C)C4)ncc3F)C2)cc1` (stereo partly shown) [Example 8.70] returned an IC50 of 59 nM.

For `CC(=O)N[C@@H](C)c1ccc(O[C@@H]2CCN(c3ccnc(N4CCOCC4)n3)C2)cc1` [Example 8.71], the 50% inhibitory concentration (IC50) was 199 nM.

`CCN(CCC#N)c1nccc(N2CC[C@@H](Oc3ccc([C@H](C)NC(C)=O)cc3)C2)n1` [Example 8.72] came in with an IC50 of 167 nM.

Consider `CC(=O)N[C@@H](C)c1ccc(O[C@@H]2CCN(c3ccnc(N4CC(C)(C)C4)n3)C2)cc1` [Example 8.73], for which the IC50 was 1040 nM.

The compound `CC(=O)N[C@@H](C)c1ccc(O[C@@H]2CCN(c3ccnc(N4CC(F)(F)C(F)(F)C4)n3)C2)cc1` [Example 8.74] had a concentration for half-maximal inhibition (IC50) of 115 nM.

Take `CC(=O)N[C@@H](C)c1ccc(O[C@@H]2CCN(c3ccnc(N4CC5(CCC5)C4)n3)C2)cc1` [Example 8.75]: the half-inhibitory concentration (IC50) came to 358 nM.

In the case of `CC(=O)N[C@@H](C)c1ccc(O[C@@H]2CCN(c3ccnc(N4CCC5(CC5)C4)n3)C2)cc1` [Example 8.76], the 50% inhibitory concentration (IC50) was 155 nM.

The compound `CC(=O)N[C@@H](C)c1ccc(O[C@@H]2CCN(c3ccnc(N4CCC(C#N)C4)n3)C2)cc1` (stereo partly shown) [Example 8.77] returned a 50% inhibitory concentration (IC50) of 489 nM.

Turning to `CC(=O)N[C@@H](C)c1ccc(O[C@@H]2CCN(c3ccnc(N4CCC(C)(C)C4)n3)C2)cc1` [Example 8.78], the half-maximal inhibitory concentration (IC50) came out at 260 nM.

Consider `CCN(CC(F)(F)F)c1nccc(N2CC[C@@H](Oc3ccc([C@H](C)NC(C)=O)cc3)C2)n1` [Example 8.79], for which the half-inhibitory concentration (IC50) was found to be 37 nM.

As for `CC(=O)N[C@@H](C)c1ccc(O[C@@H]2CCN(c3nccc(N4CC5(CCC5)C4)n3)C2)cc1` [Example 8.80], the half-maximal inhibitory concentration (IC50) was determined as 955 nM.

Turning to `CC(=O)N[C@@H](C)c1ccc(O[C@@H]2CCN(c3nccc(N4CCC(C)(C)C4)n3)C2)cc1` [Example 8.81], inhibition was half-maximal at 970 nM (IC50).

In the case of `COCCN(CC(F)F)c1nccc(N2CC[C@@H](Oc3ccc([C@H](C)NC(C)=O)cc3)C2)n1` [Example 8.83], the IC50 was determined as 165 nM.

In turn, `CC(=O)N[C@@H](C)c1ccc(O[C@@H]2CCN(c3ccnc(N4CCOC(C)C4)n3)C2)cc1` (stereo partly shown) [Example 8.84] showed an IC50 of 212 nM.

Regarding `CC(=O)N[C@@H](C)c1ccc(O[C@@H]2CCN(c3ccnc(N4C[C@@H](C)O[C@@H](C)C4)n3)C2)cc1` [Example 8.85], it took 566 nM to reach half-maximal inhibition (IC50).

For `CC(=O)N[C@@H](C)c1ccc(O[C@@H]2CCN(c3ccnc(N4CCOCC4(C)C)n3)C2)cc1` [Example 8.86], half-maximal inhibition (IC50) required 670 nM.

Take `CC(=O)N[C@@H](C)c1ccc(O[C@@H]2CCN(c3ccnc(N4[C@H](C)COC[C@H]4C)n3)C2)cc1` [Example 8.87]: the IC50 is 128 nM.

`CC(=O)N[C@@H](C)c1ccc(O[C@@H]2CCN(c3ccnc(N4CCOC(C(F)(F)F)C4)n3)C2)cc1` (stereo partly shown) [Example 8.88] yielded an IC50 of 130 nM.
